{"source": "patent US11733243B2", "about": "“Use of acamprosate to modulate ERK1/2 activation in animal models for FXS and ASD and individuals diagnosed with FXS and ASD” (Indiana University Research and Technology Corporation, priority 2013, dated 2023)", "key": {"[1]": {"system": "youths symptomatic for an autistic disorder", "details": "mean dose 1,110 mg/day, 10 to 30 weeks; cited from earlier work"}, "GABA(A)": {"system": "GABA(A)", "details": "animal studies; cited from earlier work"}, "[2]": {"system": "adult males diagnosed with FXS", "details": "3 adult males, cited from earlier work"}, "ERK": {"system": "ERK", "assay": "striatum pERK/ERK in WT and fmr1 KO mice treated with acamprosate", "type": "in vivo", "parameters": "ERK / Total: unit not given here", "description": "FIG. 4. Bar graph of pERK activity measured in WT and fmr1 KO mice treated with acamprosate\nReferring now to FIG. 4. A summary of data collected using mouse models for ASD to measure the effect of acamprosate on the levels of ERK activity in wild-type and fmr1 (fragile X gene) Knock Out mice."}, "[3]": {"system": "glutamate or GABA receptors subtypes", "details": "clinically relevant concentrations; cited from earlier work"}, "[4]": {"system": "alcohol withdrawal associated anxiety", "details": "in vivo; cited from earlier work"}, "[5]": {"assay": "safety measures and adverse effects in the FXS trial", "type": "in vivo, human", "description": "Safety assessment and monitoring began at screen when all subjects underwent a medical history, physical examination, and full psychiatric interview. A physical examination was also completed at end point. Vital signs, including height and weight, were obtained at each study visit. At screen, genetic testing for FXS was obtained if record of molecular testing utilizing Southern Blot and PCR was not available. At screen, week 6, and endpoint, laboratory tests of blood and urine, including CBC with differential and platelets, electrolyte panel, liver associated enzymes, lipid panel, and urine pregnancy test (in females) were obtained. An electrocardiogram was also obtained at screen and endpoint.\nThe pilot study ran for 10 weeks. Safety lab screens were carried out at weeks 6 and 10. Physiologic parameters measured during the safety screens were as follows: vital signs, LFTs, electrolyte panels, CBC with diff/plts, lipid panel, glucose, urinalysis and ECG.\nIn-person clinical visits were scheduled for every two weeks. Telephonic evaluations were carried out at weeks 1, 3, and 5. Each subject was evaluated for side effects at every interaction with the practitioner."}, "sAPP": {"system": "sAPP", "assay": "plasma sAPP total ELISA pre- and post-acamprosate", "type": "in vivo, human", "description": "For sAPP levels, the Test plasma samples should be measured soon after collection. […] Just before assay, we thawed the test samples at a low temperature and mixed them completely. The plasma samples should be diluted appropriately with the EIA buffer, if needed. Duplicate measurement of test samples and standard are recommended. We used test samples in neutral pH range, and avoided the contaminations of organic solvent that may affect the measurement. Regarding the standard to quantify levels of sAPP, we prepared a series of sAPP standards in EIA buffer by serial dilutions, from 0.39 ng/mL to 25 ng/mL.\nThe ELISA plate was pre-coated with anti-human APP (R12A1) mouse IgG (IBL). First, the wells for reagent blank was determined, and 100 μL each of “EIA buffer” or 10 mM NaHCO3 buffer was added into the wells. Likewise, wells were assigned for test sample blank, test sample and diluted standard. Then 100 μL each of test sample blank, test sample and dilutions of standard was added into the appropriate wells. The test sample included the plasma sample from each subject, which may vary from 5-25 μl, made up to 100 μL with the EIA buffer. Each pre-coated plates was incubated overnight at 4° C. after covering it tightly with a plate lid. The plate was kept onto a rocker with gentle shaking. The next day, each well of the pre-coated plate was vigorously washed with wash buffer containing 0.05% Tween20 in phosphate buffer. This was performed by filling each well with wash buffer, leaving the pre-coated plate laid for 15-30 seconds and removing wash buffer completely from the plate by snapping. This procedure was repeated five times. After removing the remaining liquid from all wells completely by snapping the plate onto paper towel, we added 100 μL of labeled antibody solution into the wells of test samples, diluted standard and test sample blank. HRP labeled anti-Human APP (R101A4) mouse IgG from IBL was used. The plate was incubated for 30 minutes at 4° C. after covering it with plate lid, and then washed the plate 5 times in the same manner as described before. To develop the color, 100 μL of the Chromogen (TMB solution) was adding into the wells, and the plate was incubated for 30 minutes at room temperature in the dark.\nWhen the liquid started turning blue (by addition of the Chromogen), 100 μL of the Stop solution (1N H2SO4) was added into the wells. […] A plate reader was used and measurements were conducted at 450 nm against a reagent blank. […]\nThe first project enrolled 12 youth aged 5 to 17 years with fragile X syndrome and comorbid ASD in a 10-week open-label trial of acamprosate. […] Plasma sAPP total and sAPPα were determined separately in serum using the ELISA kit obtained from Immuno Biological Laboratories (IBL, Gumma, Japan). […]"}, "[6]": {"details": "STRIATUM, KO Acam, individual mice, listed as Acam"}}, "note": "Where “and” joins values, the source holds several entries; their conditions need not be identical. Identical values can stand only once.", "data": [{"smiles": "CC(=O)NCCCS(=O)(=O)O", "note": "[Acamprosate, 3-Acetamidopropane-1-sulfonic acid]", "values": [{"measurement": "youths judged treatment responders", "setting": "[1]", "result": "five of six"}, {"measurement": "action at GABA(A)", "setting": "GABA(A)", "result": "exhibits GABA(A) agonism"}, {"measurement": "clinical response measured by the CGI-I", "setting": "[2]; mean dose 1,221 mg/day, mean duration 21.3 weeks", "result": "all 3 subjects showed significant positive clinical response"}, {"measurement": "subjects with non-treatment limiting gastrointestinal distress (emesis and/or nausea)", "setting": "[2]", "result": "Two"}, {"measurement": "A = ERK/Total", "setting": "ERK; [6]", "result": "1.31 and 1.57 and 2.78 and 2.43 and 2.19 and 2.25 and 1.71"}, {"measurement": "ERK", "setting": "ERK; [6]", "result": "24161 and 32570 and 26811 and 27464 and 25163 and 21441 and 25808"}, {"measurement": "Total", "setting": "ERK; [6]", "result": "18506 and 20784 and 9659 and 11290 and 11468 and 9535 and 15062"}, {"measurement": "pERK", "setting": "ERK; [6]", "result": "26311 and 37905 and 34961 and 25699 and 25451 and 19381 and 25020"}, {"measurement": "pERK/A", "setting": "ERK; [6]", "result": "20152.78 and 24188.44 and 12595.14 and 10564.44 and 11599.26 and 8618.90 and 14602.11"}, {"measurement": "pERK/A", "setting": "ERK; STRIATUM, KO Acam, individual mice, listed as acamp", "result": "20152.78 and 24188.44 and 12595.14 and 10564.44 and 11599.26 and 8618.90 and 14602.11"}, {"measurement": "pERK (group mean of pERK/A)", "setting": "ERK; STRIATUM, KO acamp, WT sal 14455.22, KO sal 21048.75, T Test 0.96 vs WT, 0.20 vs KO sal", "result": 14617.30}, {"measurement": "effect on ERK activation in fmr1 knockout animals", "setting": "ERK; fmr1 knockout animals", "result": "restores activated ERK to wild-type levels"}, {"measurement": "direct binding to glutamate or GABA receptors subtypes", "setting": "[3]", "result": "no direct binding"}, {"measurement": "alcohol withdrawal associated anxiety effects", "setting": "[4]", "result": "reduce alcohol withdrawal associated anxiety effects"}, {"measurement": "changes in lipids, electrolytes, liver function tests, or blood counts", "setting": "[5]; 10 weeks", "result": "no clinically significant or mean changes"}, {"measurement": "changes in weight, pulse, or blood pressure", "setting": "[5]; 10 weeks", "result": "No clinically significant changes"}, {"measurement": "Increased body rocking (mild), Number of Patients", "setting": "[5]; 12 subjects", "result": 1}, {"measurement": "subjects who experienced a mild adverse event", "setting": "[5]; 12 subjects", "result": 75, "unit": "%"}, {"measurement": "tolerability", "setting": "[5]; 12 subjects, 10 weeks", "result": "well tolerated overall, with no severe or serious adverse effects"}, {"measurement": "changes on ECG including QTc interval", "setting": "[5]; screen vs endpoint", "result": "No clinically significant changes were noted on ECG"}, {"measurement": "fractional change in sAPP(total)-CP from Baseline to Week 12", "setting": "sAPP; individual patients 1-6", "result": "−0.8279 and −0.3066 and −0.0102 and −0.1029 and −0.437 and −0.544"}, {"measurement": "sAPP(total)-CP level, Week 12", "setting": "sAPP; individual patients 1-6, after treatment", "result": "5.561 ng/mL and 25.16 ng/mL and 12.84 ng/mL and 8.077 ng/mL and 56.8 ng/mL and 7.547 ng/mL"}, {"measurement": "mean sAPP total post-treatment", "setting": "sAPP; pooled 15 participants (9 FXS, 6 idiopathic ASD), 1,054 mg/day, pre-treatment 32.6±38.3, p=0.01", "result": "21.4 ± 32.3", "unit": "ng/mL"}, {"measurement": "mean sAPP total at endpoint", "setting": "sAPP; six subjects, idiopathic ASD trial, baseline 34.7, p=0.02", "result": 19.3, "unit": "ng/mL"}]}]}
